The values that follow come from patent US11111264B2, “Morphic forms of 4-amino-7-(3,4-dihydroxy-5-(hydroxymethyl)tetrahydrofuran-2-yl)-2-methyl-7H-pyrrolo[2,3-d]pyrimidine-5-carboxamide and uses thereof” (Chimerix, Inc., priority 2017, dated 2021).

Where only a bound is given, the exact number is not on record here.

Common to all, as to format: physicochemical
Data set [1] is described as follows: Dynamic vapor sorption (DVS). As to conditions: 25° C.; for crystal form after DVS (PXRD): 50% to 0% to 95% to 50% relative humidity; for hygroscopicity (from DVS): mass as a function of relative humidity. The text has this:
FIG. 20A is a DVS diagram of a sample of Compound 1, Form A as a function of time and the applied change in relative humidity. Line A represents the relative weight of the sample at each relative humidity. Line B represents the applied relative humidity (i.e., the applied measurement program). FIG. 20B is a DVS diagram of a sample of Compound 1, Form A as a function of the applied relative humidity. FIG. 20A and FIG. 20B were obtained using a Sorptions Prufsystem ProUmid system using a scan rate of 5% relative humidity per hour at a temperature of 25° C.
DVS measurements were performed with an SPS11-100n “Sorptions Prufsystem” of Projekt Messtechnik”, D-89077 Ulm (Germany). About 20 to 100 mg of sample were put into an aluminum sample pan. Humidity change rates of 5% per hour were used. The applied measurement program is visualized in the figures.

A short description of data set [2]: Thermodynamic stability: stirring a mixture of Forms A-G in solvent/water, PXRD. The following applies: for PXRD after stirring mixture of Forms A, B, C, D, E, F and G: four days at room temperature. The text has this:
A mixture of Compound 1, Forms A, B, C, D, E, F and G was stirred in DMF/water 1:1 v/v (water activity about 0.79).
A mixture of Compound 1, Forms A, B, C, D, E, F and G was stirred in methanol/water 95:5 v/v (water activity about 0.18).

A short description of data set [3]: Suspension equilibration of Compound 1, Form A in organic solvents. The procedure:
Compound 1, Form A was stirred in methanol at room temperature for six days. […] At least 90% of Form A was still present.
Additionally, Compound 1, Form A was stirred in acetonitrile at a temperature ranging between 52° C. and 75° C. for five days.

Consider `Cc1nc(N)c2c(C(N)=O)cn([C@@H]3O[C@H](CO)[C@@H](O)[C@H]3O)c2n1` [Form A, 4-amino-7-((2R,3R,4S,5R)-3,4-dihydroxy-5-(hydroxymethyl)tetrahydrofuran-2-yl)-2-methyl-7H-pyrrolo[2,3-d]pyrimidine-5-carboxamide], for which the “desorption of water (DVS)” value in data set [1] (0% R.H., 5% relative humidity per hour) is reported as not above 0.1 % m/m. Further, in data set [1], the “crystal form after DVS (PXRD)” value is on record as “same pattern as the sample before DVS” and the “hygroscopicity (from DVS)” value is “non-hygroscopic”. For the same molecule, in data set [2] (DMF/water 1:1 v/v (water activity about 0.79)), the “PXRD after stirring mixture of Forms A, B, C, D, E, F and G” value is reported as “only the peaks of crystal form A”. Besides, the “relative thermodynamic stability among the seven morphic forms” value in data set [2] (conclusion from both slurry experiments) was “most thermodynamically stable”. In addition, in data set [2] (methanol/water 95:5 v/v (water activity about 0.18)), the “PXRD after stirring mixture of Forms A, B, C, D, E, F and G” value is “only the peaks of crystal form A”. Moreover, the “resulting crystalline material (PXRD)” value in data set [3] (stirred in acetonitrile between 52° C. and 75° C. for five days) is on record as “PXRD pattern similar to Compound 1, Form D”. Further, the “Form A still present (PXRD)” value in data set [3] (stirred in methanol at room temperature for six days) is “At least 90%”.
For the molecule `Cc1nc(N)c2c(C(N)=O)cn([C@@H]3O[C@H](CO)[C@@H](O)[C@H]3O)c2n1` [Form B, 4-amino-7-((2R,3R,4S,5R)-3,4-dihydroxy-5-(hydroxymethyl)tetrahydrofuran-2-yl)-2-methyl-7H-pyrrolo[2,3-d]pyrimidine-5-carboxamide], in data set [1], the “crystal form after DVS (PXRD)” value is on record as “transform in to Form A” and the “hygroscopicity (from DVS)” value was “hygroscopic”.
For the molecule `Cc1nc(N)c2c(C(N)=O)cn([C@@H]3O[C@H](CO)[C@@H](O)[C@H]3O)c2n1` [Form D, 4-amino-7-((2R,3R,4S,5R)-3,4-dihydroxy-5-(hydroxymethyl)tetrahydrofuran-2-yl)-2-methyl-7H-pyrrolo[2,3-d]pyrimidine-5-carboxamide], in data set [1], the “crystal form after DVS (PXRD)” value is “remained as Form D” and the “hygroscopicity (from DVS)” value is recorded as “hygroscopic”.
As for `Cc1nc(N)c2c(C(N)=O)cn([C@@H]3O[C@H](CO)[C@@H](O)[C@H]3O)c2n1` [Form E, 4-amino-7-((2R,3R,4S,5R)-3,4-dihydroxy-5-(hydroxymethyl)tetrahydrofuran-2-yl)-2-methyl-7H-pyrrolo[2,3-d]pyrimidine-5-carboxamide], in data set [1], the “crystal form after DVS (PXRD)” value is given as “transformed into Form A” and the “hygroscopicity (from DVS)” value is listed as “hygroscopic”.
